Each block holds one compound with its values, some of them ahead of it. Activity calls are given as the source filed them. The rule behind the calls is not given here.
Assays:
Monoglyceride lipase [1] = biological target: T1, Monoglyceride lipase (Homo sapiens, UniProt Q99685); experiment: Inhibition of MAGL (unknown origin)
T1 sequence (Q99685 whole entry): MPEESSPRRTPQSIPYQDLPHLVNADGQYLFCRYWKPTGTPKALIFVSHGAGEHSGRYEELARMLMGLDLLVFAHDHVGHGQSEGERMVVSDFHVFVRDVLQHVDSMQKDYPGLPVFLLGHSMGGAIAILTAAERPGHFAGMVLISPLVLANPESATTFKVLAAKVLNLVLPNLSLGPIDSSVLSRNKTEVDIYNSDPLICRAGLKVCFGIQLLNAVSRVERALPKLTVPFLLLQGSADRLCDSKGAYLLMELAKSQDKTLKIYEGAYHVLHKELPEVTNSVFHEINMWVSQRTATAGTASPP

RAW264.7 [2] = experiment: Antiinflammatory activity in mouse RAW264.7 cells assessed as reduction in LPS-induced CCL-2 mRNA expression measured after 24 hrs by RT-PCR analysis; type: functional, cell-based; settings: dose 20-40 µM
[3] = biological target: T2, Monoglyceride lipase (Homo sapiens) (UniProt Q99685); experiment: Reversible inhibition of MAGL (unknown origin)
T2 sequence (whole entry): T1 sequence (Q99685 whole entry)

RAW264.7 [4] = experiment: Antiinflammatory activity in mouse RAW264.7 cells assessed as reduction in LPS-induced IL-6 mRNA expression measured after 24 hrs by RT-PCR analysis; type: functional, cell-based; settings: dose 20-40 µM
Monoglyceride lipase [5] = biological target: T1, Monoglyceride lipase; experiment: Binding affinity to MAGL (unknown origin) by SPR analysis
[6] = biological target: T3, Monoglyceride lipase (Mus musculus) (UniProt O35678); experiment: Inhibition of MAGL in mouse RAW264.7 cells assessed as increase in 2-AG level at 30 uM; type: cell-based
T3 sequence (whole entry): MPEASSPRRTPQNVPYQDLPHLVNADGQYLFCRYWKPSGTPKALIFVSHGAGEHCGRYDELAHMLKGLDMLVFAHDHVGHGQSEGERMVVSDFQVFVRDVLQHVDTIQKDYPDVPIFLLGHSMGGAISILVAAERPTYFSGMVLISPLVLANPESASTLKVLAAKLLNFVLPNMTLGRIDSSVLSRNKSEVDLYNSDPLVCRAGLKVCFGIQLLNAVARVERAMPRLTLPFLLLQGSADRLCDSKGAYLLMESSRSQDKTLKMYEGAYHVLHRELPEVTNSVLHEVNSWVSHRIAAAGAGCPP

RAW264.7 [7] = experiment: Antiinflammatory activity in mouse RAW264.7 cells assessed as reduction in LPS-induced IL-1beta mRNA expression measured after 24 hrs by RT-PCR analysis; type: functional, cell-based; settings: dose 20-40 µM
[8] = biological target: T2, Monoglyceride lipase (Homo sapiens); experiment: Inhibition of MAGL (unknown origin) in presence of DTT
Monoglyceride lipase [9] = biological target: T4, Monoglyceride lipase (Rattus norvegicus, UniProt Q8R431); experiment: Inhibition of recombinant rat MAGL by LC-MS analysis
T4 sequence (Q8R431 whole entry): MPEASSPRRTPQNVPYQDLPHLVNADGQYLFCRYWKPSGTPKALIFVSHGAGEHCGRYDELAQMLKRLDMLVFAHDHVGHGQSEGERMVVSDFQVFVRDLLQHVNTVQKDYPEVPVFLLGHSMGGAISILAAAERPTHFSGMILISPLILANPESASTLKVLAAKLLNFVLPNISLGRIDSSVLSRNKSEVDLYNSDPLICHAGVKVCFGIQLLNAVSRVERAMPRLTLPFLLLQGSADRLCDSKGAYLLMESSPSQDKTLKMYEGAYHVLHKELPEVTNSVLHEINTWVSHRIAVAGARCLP

SMILES: CC1CCN(c2nc3ccc(C(=O)N4CCN(Cc5ccccc5)CC4)cc3s2)CC1
IC50 (Monoglyceride lipase [1]): 2870 nM

SMILES: COc1ccc(N2CCN(C(=O)c3ccc4nc(N5CCC(C)CC5)sc4c3)CC2)cc1
Activity (RAW264.7 [2]): Dose-Dependent Effect
inhibition [3]: Active
Activity (RAW264.7 [4]): Dose-Dependent Effect
Kd (Monoglyceride lipase [5]): 710 nM
IC50 (Monoglyceride lipase [1]): 2840 nM
inhibition [6]: Active
Activity (RAW264.7 [7]): Dose-Dependent Effect
inhibition [8]: Active

SMILES: COc1cccc(N2CCN(C(=O)c3ccc4nc(N5CCC(C)CC5)sc4c3)CC2)c1
IC50 (Monoglyceride lipase [1]): 6580 nM

SMILES: COC(=O)[C@]1(C)CC[C@]2(C)CC[C@]3(C)C4=CC=C5C(=CC(=O)C(O)=C5C)[C@]4(C)CC[C@@]3(C)[C@@H]2C1 [PRISTIMERIN]
IC50 (Monoglyceride lipase [9]): 93 nM

SMILES: Cc1ccc(Cl)cc1N1CCN(C(=O)c2ccc3nc(N4CCC(C)CC4)sc3c2)CC1
IC50 (Monoglyceride lipase [1]): 5800 nM

SMILES: O=C(c1ccc2nc(N3CCCCC3)sc2c1)N1CCN(c2ccccn2)CC1
IC50 (Monoglyceride lipase [1]): > 33300 nM

SMILES: CC(C)=CCC[C@@H](C)[C@@H]1CC[C@]2(C)C3=C(CC[C@@]12C)[C@@]1(C)CC[C@H](O)C(C)(C)[C@@H]1CC3 [EUPHOL]
IC50 (Monoglyceride lipase [9]): 315 nM

Second part, the compound after the results:

IC50 (Monoglyceride lipase [1]): > 33300 nM
SMILES: O=C(C1CCN(c2nc3ncccc3s2)CC1)N1CCN(Cc2ccc3c(c2)OCO3)CC1

IC50 (Monoglyceride lipase [1]): > 33300 nM
SMILES: COc1cc(N2CCN(C(=O)c3ccc4nc(N5CCC(C)CC5)sc4c3)CC2)cc(OC)c1OC

IC50 (Monoglyceride lipase [1]): > 33300 nM
SMILES: O=C(C1CCCN(c2nc3ncccc3s2)C1)N1CCN(Cc2ccc3c(c2)OCO3)CC1 (configuration not stated)

— ChEMBL document CHEMBL4814026, “Discovery of novel reversible monoacylglycerol lipase inhibitors via docking-based virtual screening” (Bioorg Med Chem Lett, 2021)
